Results published in patent publication US20090048269A1 (AstraZeneca AB, priority 2007, published 2009).

Tests used:
human ALK5 [1] = molecular target: T1, human ALK5 (Homo sapiens, UniProt P36897); experiment: ALK5 Enzyme Assay 2 (fluorescence polarisation probe displacement); type: binding; set-up: 6His tagged human ALK5 (residues162-503) was grown and purified from insect cells; 6His; made in house; host or cells: insect cells
T1 sequence (P36897 162-503): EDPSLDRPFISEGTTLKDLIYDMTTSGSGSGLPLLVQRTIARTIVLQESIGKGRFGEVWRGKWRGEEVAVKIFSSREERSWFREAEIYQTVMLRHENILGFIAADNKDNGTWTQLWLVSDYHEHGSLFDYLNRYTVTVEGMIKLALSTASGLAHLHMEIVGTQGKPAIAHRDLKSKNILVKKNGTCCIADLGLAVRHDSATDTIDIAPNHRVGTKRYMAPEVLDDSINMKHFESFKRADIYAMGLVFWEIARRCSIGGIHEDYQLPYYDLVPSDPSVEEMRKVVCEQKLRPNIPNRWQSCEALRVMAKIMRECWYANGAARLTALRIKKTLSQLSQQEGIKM
How it was run: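 Recombinant ALK5 (3 μg/mL) incubated with test compound in 50 mM HEPES pH7.4, 10 mM MgCl2, 1 mM DTT, 0.01% CHAPS. Displacement of a fluorescent quinazoline-based ALK5 probe (50 nM final) in presence of 1 μM ATP read by fluorescence polarisation.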

human ALK5 [2] = molecular target: T1, human ALK5; experiment: ALK5 Enzyme Assay 1; type: biochemical; set-up: 6His tagged ALK5 protein (amino acids 162-503) expressed in insect cells; 6His; made in house; host or cells: insect cells
Method: This assay measures the ability of a compound to bind to and inhibit the activity of ALK5 protein in vitro. […] Assay measurements were performed in assay buffer comprising 60 mM HEPES pH 7.4, 3 mM MgCl2, 3 mM MnCl2, 3 μM Na orthovanadate, 1.2 mM DTT and 0.05% PEG2000. […] Reactions were performed in the presence of 200 μg/mL casein (Sigma-Aldrich C4765-10ML), 200 ng/mL ALK5, 0.5 μM ATP (Sigma-Aldrich A7699), 1 μCi/mL γ-33P ATP. Following addition of casein, ATP and compound, reactions were initiated by adding ALK5 enzyme and reactions run for 90 minutes. After incubation reactions were terminated by addition of 20 μL per well of 50% orthophosphoric acid. 20 minutes after addition of 70% v/v TCA, precipitated protein was transferred to GF/C 96 well plates using a Tomtec harvester with 1.5% orthophosphoric acid. […] All reactions were performed under linear kinetics.

[3] = read-out: EAA2: activity (μM) using Enzyme Assay 2
[4] = read-out: EAA: activity (μM) using Enzyme Assay 1

Row | IC50 (human ALK5 [1]; [3]) [µM] | IC50 (human ALK5 [2]; [4]) [µM] | IC50 (human ALK5 [1]) [µM] | IC50 (human ALK5 [2]; EAA: activity (μM) using Enzyme Assay 1) [µM] | Compound
1 | 0.0123 | 0.0141 |  |  | Cc1cc(Oc2ccnc(Nc3cccc(C#N)c3)c2)c(-c2ccccn2)nc1C [Example 41, 3-{[4-(5,6-Dimethyl-2-pyridin-2-yl-pyridin-3-yl)oxypyridin-2-yl]-amino}-benzonitrile]
2 | 0.0255 | 0.0215 |  |  | Cc1cc(Oc2ccnc(Nc3ccc(C#N)cc3)c2)c(-c2ccccn2)nc1C [Example 34, 4-{[4-(5,6-Dimethyl-2-pyridin-2-yl-pyridin-3-yl)-oxypyridin-2-yl]amino}benzonitrile]
3 | 0.0514 | 0.0147 |  |  | COc1ccc(S(C)(=O)=O)cc1Nc1cc(Oc2cc(C)c(C)nc2-c2ccccn2)ccn1 [Example 17, 4-(5,6-Dimethyl-2-pyridin-2-yl-pyridin-3-yl)oxy-N-(2-methoxy-5-methylsulfonyl-phenyl)pyridin-2-amine]
4 | 0.0165 | 0.0161 |  |  | CCc1ccc(Oc2ccnc(Nc3ccc(S(N)(=O)=O)cc3)c2)c(-c2ccccn2)n1 [Example 44, 4-{[4-(6-Ethyl-2-pyridin-2-yl-pyridin-3-yl)oxypyridin-2-yl]-amino}benzene-sulfonamide]
5 | 0.0459 | 0.0274 |  |  | CCc1ccc(Oc2ccnc(Nc3cc(OC)c(OC)c(OC)c3)c2)c(-c2cccc(C)n2)n1 [Example 3, 4-[6-Ethyl-2-(6-methylpyridin-2-yl)pyridin-3-yl]oxy-N-(3,4,5-trimethoxy-phenyl)pyridin-2-amine]
6 | 0.125 | 0.0772 |  |  | Cc1cc(Oc2ccnc(Nc3cc(N4CCOCC4)cc(N4CCOCC4)c3)c2)c(-c2ccccn2)nc1C [Example 21, 4-(5,6-Dimethyl-2-pyridin-2-yl-pyridin-3-yl)oxy-N-(3,5-dimorpholin-4-ylphenyl)pyridin-2-amine]
7 | 0.0103 | 0.00853 |  |  | Cc1cc(Oc2ccnc(Nc3ccc(S(C)(=O)=O)cc3)c2)c(-c2ccccn2)nc1C [Example 13, 4-(5,6-Dimethyl-2-pyridin-2-yl-pyridin-3-yl)oxy-N-(4-methylsulfonyl-phenyl)-pyridin-2-amine]
8 | 0.0339 | 0.0425 |  |  | CCn1nccc1Nc1cc(Oc2cc(C)c(C)nc2-c2ccccn2)ccn1 [Example 32, 4-(5,6-Dimethyl-2-pyridin-2-yl-pyridin-3-yl)oxy-N-(2-ethylpyrazol-3-yl)-pyridin-2-amine]
9 | 0.0124 | 0.0219 |  |  | Cc1cc(Oc2ccnc(Nc3ccc(S(N)(=O)=O)cc3)c2)c(-c2ccccn2)nc1C [Example 26, 4-{[4-(5,6-Dimethyl-2-pyridin-2-yl-pyridin-3-yl)oxypyridin-2-yl]-amino}benzenesulfonamide]
10 | 0.0308 | 0.126 |  |  | COc1cc(Nc2cc(Oc3cccnc3-c3ccccc3C#N)ccn2)cc(OC)c1OC [Example 50, 2-(3-{2-[(3,4,5-Trimethoxyphenyl)amino]pyridin-4-yl}-oxypyridin-2-yl)benzonitrile]
11 | 0.0108 | 0.0248 |  |  | COc1cc(Nc2cc(Oc3ccc(C)nc3-c3ccccn3)ccn2)cc(OC)c1OC [Example 47, 4-(6-Methyl-2-pyridin-2-yl-pyridin-3-yl)oxy-N-(3,4,5-trimethoxy-phenyl)pyridin-2-amine]
12 | 0.00799 | 0.00537 |  |  | COc1cc(Nc2cc(Oc3ccc(C)nc3-c3ccccc3)ccn2)cc(OC)c1OC [Example 45, 4-(6-Methyl-2-phenyl-pyridin-3-yl)oxy-N-(3,4,5-trimethoxy-phenyl)pyridin-2-amine]
13 | 0.0216 | 0.036 |  |  | Cc1cc(Oc2ccnc(Nc3ccc(F)cc3F)c2)c(-c2ccccn2)nc1C [Example 37, N-(2,4-Difluorophenyl)-4-(5,6-dimethyl-2-pyridin-2-yl-pyridin-3-yl)oxy-pyridin-2-amine]
14 | 0.249 | 0.481 |  |  | COc1cc(Nc2cc(Oc3cccnc3Cl)ccn2)cc(OC)c1OC [Example 53, 4-(2-Chloropyridin-3-yl)oxy-N-(3,4,5-trimethoxyphenyl)pyridin-2-amine]
15 | 0.00602 | 0.0128 |  |  | CC(=O)Nc1cc(Nc2cc(Oc3cc(C)c(C)nc3-c3ccccn3)ccn2)ccc1C [Example 16, N-(5-{[4-(5,6-Dimethyl-2-pyridin-2-yl-pyridin-3-yl)oxypyridin-2-yl]amino}-2-methyl-phenyl)acetamide]
16 | 0.00804 | 0.00782 |  |  | COc1cc(Nc2cc(Oc3cccnc3-c3ccccc3)ccn2)cc(OC)c1OC [Example 49, 4-(2-Phenylpyridin-3-yl)oxy-N-(3,4,5-trimethoxyphenyl)pyridin-2-amine]
17 |  |  | 0.00216 | 0.0128 | COc1ccccc1Nc1cc(Oc2cc(C)c(C)nc2-c2ccccn2)ccn1 [Example 19, 4-(5,6-Dimethyl-2-pyridin-2-yl-pyridin-3-y1)oxy-N-(2-methoxy-phenyl)-pyridin-2-amine]
18 | 0.00378 | 0.00977 |  |  | Cc1cc(Oc2ccnc(Nc3cccc(CO)c3)c2)c(-c2ccccn2)nc1C [Example 38, (3-{[4-(5,6-Dimethyl-2-pyridin-2-yl-pyridin-3-yl)-oxypyridin-2-yl]amino}phenyl)methanol]
19 | 1.97 | 5.5 |  |  | COc1cc(Nc2cc(Oc3cccnc3)ccn2)cc(OC)c1OC [Example 6, 4-Pyridin-3-yloxy-N-(3,4,5-trimethoxyphenyl)pyridin-2-amine]
20 | 0.894 | 1.67 |  |  | Cc1cc(Oc2ccnc(Nc3ccc(Cl)cc3)c2)c(-c2ccccn2)nc1C [Example 30, N-(4-Chlorophenyl)-4-(5,6-dimethyl-2-pyridin-2-yl-pyridin-3-yl)oxy-pyridin-2-amine]
21 | 0.0147 | 0.0129 |  |  | Cc1cc(Oc2ccnc(Nc3cccnc3)c2)c(-c2ccccn2)nc1C [Example 15, 4-(5,6-Dimethyl-2-pyridin-2-yl-pyridin-3-yl)oxy-N-pyridin-3-yl-pyridin-2-amine]
22 | 0.0346 | 0.00929 |  |  | COc1cc(Nc2cc(Oc3ccc(C)nc3-c3cccc(Cl)c3)ccn2)cc(OC)c1OC [Example 55, 4-[2-(3-Chlorophenyl)-6-methyl-pyridin-3-yl]oxy-N-(3,4,5-trimethoxyphenyl)-pyridin-2-amine]
23 | 0.0124 | 0.00706 |  |  | Cc1cc(Oc2ccnc(Nc3ccc(C(=O)N(C)C)cc3)c2)c(-c2ccccn2)nc1C [Example 27, 4-{[4-(5,6-Dimethyl-2-pyridin-2-yl-pyridin-3-yl)oxypyridin-2-yl]-amino}-N,N-dimethyl-benzamide]
24 | 0.0723 | 0.0337 |  |  | COc1cc(Nc2cc(Oc3cc(C)c(C)nc3-c3cccc(C)n3)ccn2)cc(OC)c1OC [Example 2, 4-[5,6-Dimethyl-2-(6-methylpyridin-2-yl)pyridin-3-yl]oxy-N-(3,4,5-trimethoxy-phenyl)pyridin-2-amine]
25 | 0.0329 | 0.0156 |  |  | COc1cc(Nc2cc(Oc3cccnc3-c3ccc(F)cc3)ccn2)cc(OC)c1OC [Example 52, 4-[2-(4-Fluorophenyl)pyridin-3-yl]oxy-N-(3,4,5-trimethoxy-phenyl)pyridin-2-amine]
26 | 0.463 | 0.205 |  |  | Cc1cc(Oc2ccnc(Nc3ccc4[nH]ccc4c3)c2)c(-c2ccccn2)nc1C [Example 35, N-[4-(5,6-Dimethyl-2-pyridin-2-yl-pyridin-3-yl)-oxypyridin-2-yl]-1H-indol-5-amine]
27 | 0.0486 | 0.0751 |  |  | COc1cc(Nc2cc(Oc3ccc(C)nc3-c3cnccn3)ccn2)cc(OC)c1OC [Example 48, 4-(6-Methyl-2-pyrazin-2-yl-pyridin-3-yl)oxy-N-(3,4,5-trimethoxy-phenyl)pyridin-2-amine]
28 | 0.0274 | 0.23 |  |  | COc1cc(Nc2cc(Oc3cccnc3-c3ccc(NC(C)=O)cc3)ccn2)cc(OC)c1OC [Example 51, N-[4-(3-{2-[(3,4,5-Trimethoxyphenyl)amino]pyridin-4-yl}-oxypyridin-2-yl)phenyl]acetamide]
29 | 0.00728 | 0.0162 |  |  | Cc1ccc(Oc2ccnc(Nc3ccc(S(N)(=O)=O)cc3)c2)c(-c2ccccn2)n1 [Example 43, 4-{[4-(6-Methyl-2-pyridin-2-yl-pyridin-3-yl)oxypyridin-2-yl]-amino}benzene-sulfonamide]
30 | 0.187 | 0.114 |  |  | COc1cc(Nc2cc(Oc3cccnc3C)ccn2)cc(OC)c1OC [Example 9, 4-(2-Methylpyridin-3-yl)oxy-N-(3,4,5-trimethoxyphenyl)-pyridin-2-amine]
